What was measured:
Test in all cases: animal or person
Assay type in all cases: in vivo
Male Sprague-Dawley rats [1] = conditions: Rattus norvegicus, iv, read-out: Intervention Protection %
Male Sprague-Dawley rats [2] = conditions: for ED50: Rattus norvegicus, read-out: Prevention ED50; for ED50 / Prevention Peak Time: ip; for Prevention Peak Time / Prevention Protection %: rat, in vivo
Mice = conditions: Mus musculus, po; for ED50: read-out: MES test ED50
[3] = read-out: MES test Protection %

CO[C@@H](c1ccccc1I)[C@H](C)OC(N)=O [Example 143, 1-(2-iodophenyl)-(S)-1-methoxypropyl-(S)-2-carbamate]
responders at 23 mg/kg (Male Sprague-Dawley rats [1]): 66.7% | ED50 (Male Sprague-Dawley rats [2]): 19.6 mg/kg | Prevention Peak Time (Male Sprague-Dawley rats [2]): 1 h | ED50 (Mice): 15.7 mg/kg

COCO[C@@H](c1cccc(I)c1)[C@H](C)OC(N)=O [Example 52, 1-(3-iodophenyl)-(S)-1-methoxymethoxypropyl-(S)-2-carbamate]
responders at 46 mg/kg (Male Sprague-Dawley rats [1]): 100% | Prevention Protection % (Male Sprague-Dawley rats [2]): ^a20 (16.7%) | ED50 (Mice): 24.7 mg/kg

COCO[C@@H](c1ccccc1Cl)[C@H](C)OC(N)=O [Example 1, 1-(2-chlorophenyl)-(S)-1-methoxymethoxypropyl-(S)-2-carbamate]
responders at 46 mg/kg (Male Sprague-Dawley rats [1]): 50% | ED50 (Male Sprague-Dawley rats [2]): 26.6 mg/kg | Prevention Peak Time (Male Sprague-Dawley rats [2]): 0.5 h | ED50 (Mice): 21.6 mg/kg

CO[C@@H](c1ccc(F)cc1)[C@H](C)OC(N)=O [Example 179, 1-(4-fluorophenyl)-(S)-1-methoxypropyl-(S)-2-carbamate]
responders at 90 mg/kg (Mice; [3]): 33.3%

COCO[C@@H](c1cccc(Cl)c1Cl)[C@H](C)OC(N)=O [Example 68, 1-(2,3-dichlorophenyl)-(S)-1-methoxymethoxypropyl-(S)-2-carbamate]
responders at 46 mg/kg (Male Sprague-Dawley rats [1]): 40% | responders at 90 mg/kg (Mice; [3]): 100%

CO[C@@H](c1cccc(Cl)c1Cl)[C@H](C)OC(N)=O [Example 191, 1-(2,3-dichlorophenyl)-(S)-1-methoxypropyl-(S)-2-carbamate]
responders at 46 mg/kg (Male Sprague-Dawley rats [1]): 100% | responders at 90 mg/kg (Mice; [3]): 100%

C[C@@H](OC(N)=O)[C@H](OC(N)=O)c1ccccc1F [Example 289, 1-(2-fluorophenyl)-(R)-1-carbamoyloxypropyl-(R)-2-carbamate]
Prevention Protection % (Male Sprague-Dawley rats [2]): ^a80 (16.7%) | ED50 (Mice): 56.2 mg/kg

C[C@@H](OC(N)=O)[C@H](OC(N)=O)c1ccccc1Cl [Example 250, 1-(2-chlorophenyl)-(R)-2-carbamoyloxypropyl-(R)-1-carbamate]
Prevention Protection % (Male Sprague-Dawley rats [2]): ^a60 (16.7%) | ED50 (Mice): 46.3 mg/kg

CCCC[C@H](OC(N)=O)[C@@H](OCOC)c1ccccc1I [Example 44, 1-(2-iodophenyl)-(S)-1-methoxymethoxyhexyl-(S)-2-carbamate]
responders at 90 mg/kg (Mice; [3]): 100%

CCCC[C@H](OC(N)=O)[C@@H](OC)c1ccccc1I [Example 167, 1-(2-iodophenyl)-(S)-1-methoxyhexyl-(S)-2-carbamate]
responders at 90 mg/kg (Mice; [3]): 33.3%

COCO[C@H](COC(N)=O)c1ccccc1I [Example 278, 1-(2-iodophenyl)-(S)-1-methoxymethoxyethyl-2-carbamate]
responders at 30 mg/kg (Mice; [3]): 33.3%

CC[C@@H](OC(N)=O)[C@H](OC)c1ccc(Cl)cc1Cl [Example 232, 1-(2,4-dichlorophenyl)-(R)-1-methoxybutyl-(R)-2-carbamate]
responders at 90 mg/kg (Mice; [3]): 33.3%

COCO[C@@H](c1ccccc1I)[C@H](C)OC(N)=O [Example 20, 1-(2-iodophenyl)-(S)-1-methoxymethoxypropyl-(S)-2-carbamate]
responders at 46 mg/kg (Male Sprague-Dawley rats [1]): 16.7% | ED50 (Male Sprague-Dawley rats [2]): 25.9 mg/kg | Prevention Peak Time (Male Sprague-Dawley rats [2]): 1 h | ED50 (Mice): 29.5 mg/kg

COCO[C@H](c1ccccc1Cl)[C@H](C)OC(N)=O [Example 71, 1-(2-chlorophenyl)-(R)-1-methoxymethoxypropyl-(S)-2-carbamate]
responders at 46 mg/kg (Male Sprague-Dawley rats [1]): 100% | responders at 90 mg/kg (Mice; [3]): 100%

CO[C@@H](c1ccc(Cl)cc1Cl)[C@H](C)OC(N)=O [Example 183, 1-(2,4-dichlorophenyl)-(S)-1-methoxypropyl-(S)-2-carbamate]
responders at 46 mg/kg (Male Sprague-Dawley rats [1]): 100% | responders at 90 mg/kg (Mice; [3]): 100%

CC(OC(N)=O)C(OC(N)=O)c1ccccc1Cl (centres unmarked) [Example 251, 1-(2-chlorophenyl)-2-carbamoyloxypropyl-1-carbamate]
responders at 100 mg/kg (Mice; [3]): 33.3%

COCO[C@@H](C)[C@@H](OC(N)=O)c1ccccc1F [Example 284, 1-(2-fluorophenyl)-(S)-2-methoxymethoxypropyl-1-carbamate]
responders at 90 mg/kg (Mice; [3]): 33.3%

C[C@H](OC(N)=O)[C@@H](OC(N)=O)c1c(Cl)cccc1Cl [Example 267, 1-(2,6-dichlorophenyl)-(S)-1-carbamoyloxypropyl-(S)-2-carbamate]
responders at 50 mg/kg (Mice; [3]): 16.6%

CO[C@@H](c1ccccc1Cl)[C@@H](C)OC(N)=O [Example 195, 1-(2-chlorophenyl)-(S)-1-methoxypropyl-(R)-2-carbamate]
responders at 46 mg/kg (Male Sprague-Dawley rats [1]): 50% | responders at 90 mg/kg (Mice; [3]): 100%

C[C@H](OC(N)=O)[C@H](OC(N)=O)c1ccccc1Cl [Example 295, 1-(2-chlorophenyl)-(R)-1-carbamoyloxypropyl-(S)-2-carbamate]
responders at 90 mg/kg (Mice; [3]): 100%

CCCC[C@H](OC(N)=O)[C@@H](OCOC)c1ccccc1Cl [Example 11, 1-(2-chlorophenyl)-(S)-1-methoxymethoxyhexyl-(S)-2-carbamate]
responders at 46 mg/kg (Male Sprague-Dawley rats [1]): 66.7% | responders at 90 mg/kg (Mice; [3]): 100%

CO[C@@H](c1cccc(I)c1)[C@@H](OC(N)=O)C(C)C [Example 177, 1-(3-iodophenyl)-(S)-1-methoxy-3-methyl-butyl-(S)-2-carbamate]
responders at 90 mg/kg (Mice; [3]): 66.6%

C[C@H](OC(N)=O)[C@@H](OC(N)=O)c1c(F)cccc1Cl [Example 286, 1-(2-chloro-6-fluorophenyl)-(S)-1-carbamoyloxypropyl-(S)-2-carbamate]
responders at 90 mg/kg (Mice; [3]): 33.3%

CCCC[C@@H](OC(N)=O)[C@H](OC)c1ccc(F)cc1 [Example 213, 1-(4-fluorophenyl)-(R)-1-methoxyhexyl-(R)-2-carbamate]
responders at 90 mg/kg (Mice; [3]): 33.3%

C[C@H](OC(N)=O)[C@@H](OC(N)=O)c1ccccc1I [Example 259, 1-(2-iodophenyl)-(S)-1-carbamoyloxypropyl-(S)-2-carbamate]
responders at 90 mg/kg (Mice; [3]): 66.6%

C[C@@H](OC(N)=O)[C@H](OC(N)=O)c1c(F)cccc1F [Example 292, 1-(2,6-difluorophenyl)-(R)-1-carbamoyloxypropyl-(R)-2-carbamate]
responders at 56 mg/kg (Mice; [3]): 33.3%

CC[C@H](OC(N)=O)[C@@H](OC)c1ccccc1I [Example 151, 1-(2-iodophenyl)-(S)-1-methoxybutyl-(S)-2-carbamate]
responders at 46 mg/kg (Male Sprague-Dawley rats [1]): 100% | Prevention Protection % (Male Sprague-Dawley rats [2]): ^a60 (100%) | ED50 (Mice): 37 mg/kg

CO[C@H](c1ccccc1Cl)[C@H](C)OC(N)=O [Example 194, 1-(2-chlorophenyl)-(R)-1-methoxypropyl-(S)-2-carbamate]
responders at 46 mg/kg (Male Sprague-Dawley rats [1]): 83.3% | responders at 90 mg/kg (Mice; [3]): 100%

COCO[C@H](c1cc(Cl)ccc1Cl)[C@@H](C)OC(N)=O [Example 273, 1-(2,5-dichlorophenyl)-(R)-1-methoxymethoxypropyl-(R)-2-carbamate]
responders at 30 mg/kg (Mice; [3]): 33.3%

COCO[C@H](c1ccccc1Cl)[C@@H](C)OC(N)=O [Example 69, 1-(2-chlorophenyl)-(R)-1-methoxymethoxypropyl-(R)-2-carbamate]
responders at 90 mg/kg (Mice; [3]): 66.6%

COCO[C@@H](c1ccccc1Cl)[C@@H](OC(N)=O)C(C)C [Example 10, 1-(2-chlorophenyl)-(S)-1-methoxymethoxy-3-methyl-butyl-(S)-2-carbamate]
responders at 46 mg/kg (Male Sprague-Dawley rats [1]): 66.7% | responders at 90 mg/kg (Mice; [3]): 100%

CC[C@H](OC(N)=O)[C@@H](OCOC)c1ccccc1Cl [Example 9, 1-(2-chlorophenyl)-(S)-1-methoxymethoxybutyl-(S)-2-carbamate]
responders at 46 mg/kg (Male Sprague-Dawley rats [1]): 33.3% | responders at 90 mg/kg (Mice; [3]): 100%

COCO[C@@H](c1ccccc1I)[C@@H](OC(N)=O)C(C)C [Example 36, 1-(2-iodophenyl)-(S)-1-methoxymethoxy-3-methyl-butyl-(S)-2-carbamate]
responders at 90 mg/kg (Mice; [3]): 100%

C[C@@H](OC(N)=O)[C@@H](OC(N)=O)c1ccccc1Cl [Example 294, 1-(2-chlorophenyl)-(S)-1-carbamoyloxypropyl-(R)-2-carbamate]
responders at 90 mg/kg (Mice; [3]): 66.6%

COCO[C@@H](C)[C@@H](OC(N)=O)c1ccccc1Cl [Example 274, 1-(2-chlorophenyl)-(S)-2-methoxymethoxypropyl-(S)-1-carbamate]
responders at 46 mg/kg (Male Sprague-Dawley rats [1]): 33.3% | responders at 90 mg/kg (Mice; [3]): 100%

CO[C@@H](c1ccccc1Cl)[C@H](C)OC(N)=O [Example 124, 1-(2-chlorophenyl)-(S)-1-methoxypropyl-(S)-2-carbamate]
ED50 (Mice): 15.6 mg/kg

COCO[C@@H](C)[C@@H](OC(N)=O)c1ccccc1I [Example 282, 1-(2-iodophenyl)-(S)-2-methoxymethoxypropyl-1-carbamate]
responders at 90 mg/kg (Mice; [3]): 33.3%

COCO[C@H](c1c(Cl)cccc1Cl)[C@@H](C)OC(N)=O [Example 107, 1-(2,6-dichlorophenyl)-(R)-1-methoxymethoxypropyl-(R)-2-carbamate]
responders at 30 mg/kg (Mice; [3]): 33.3%

CO[C@@H](C)[C@@H](OC(N)=O)c1ccccc1Cl [Example 275, 1-(2-chlorophenyl)-(S)-2-methoxypropyl-(S)-1-carbamate]
responders at 90 mg/kg (Mice; [3]): 100%

CC[C@H](OC(N)=O)[C@@H](OCOC)c1ccccc1I [Example 28, 1-(2-iodophenyl)-(S)-1-methoxymethoxybutyl-(S)-2-carbamate]
responders at 46 mg/kg (Male Sprague-Dawley rats [1]): 33.3% | Prevention Protection % (Male Sprague-Dawley rats [2]): ^a50 (100%) | responders at 90 mg/kg (Mice; [3]): 33.3%

COCO[C@@H](c1ccccc1Cl)[C@@H](C)OC(N)=O [Example 72, 1-(2-chlorophenyl)-(S)-1-methoxymethoxypropyl-(R)-2-carbamate]
responders at 46 mg/kg (Male Sprague-Dawley rats [1]): 50% | responders at 90 mg/kg (Mice; [3]): 100%

C[C@@H](OC(N)=O)[C@H](OC(N)=O)c1c(Cl)cccc1Cl [Example 290, 1-(2,6-dichlorophenyl)-(R)-1-carbamoyloxypropyl-(R)-2-carbamate]
responders at 30 mg/kg (Mice; [3]): 33.3%

CO[C@@H](C)[C@@H](OC(N)=O)c1ccccc1I [Example 283, 1-(2-iodophenyl)-(S)-2-methoxypropyl-1-carbamate]
responders at 90 mg/kg (Mice; [3]): 100%

CO[C@@H](c1ccccc1F)[C@H](C)OC(N)=O [Example 135, 1-(2-fluorophenyl)-(S)-1-methoxypropyl-(S)-2-carbamate]
responders at 46 mg/kg (Male Sprague-Dawley rats [1]): 100% | Prevention Protection % (Male Sprague-Dawley rats [2]): ^a20 (16.7%) | ED50 (Mice): 12.5 mg/kg

From patent US9504668B2 (priority 2013, dated 2016)
